Experimental data from patent US4058523A, “Bis(benzamido)-benzene derivatives” (Chugai Seiyaku Kabushiki Kaisha, priority 1974, dated 1977).
Structures can show the parent of a compound that is named as a salt.

What was measured:
[1] = test system: stress-induced ulcer formation; test: Inhibitory action on stress-induced ulcer formation; type: in vivo, Sprague-Dawley strain male rats; details: oral, rats; for Number of Ulcers/Stomach, 3 mm or larger / Number of Ulcers/Stomach, up to 3 mm: 10 minutes before stress; for Ulcer Index (mean value ± standard deviation): Ulcer Index = a + b/10, Control 6.1 ± 2.3; for inhibition in vivo at 100 mg/kg: Rattus norvegicus, 16 h, stress-induced ulcer, read-out: Percent Inhibition
Procedure: Action on stress-induced ulcer formation
Sprague-Dawley strain male rats weighing 200-250 g were deprived of food for 24 hours, and then laid down on their backs on a screen and fixed by fastening their limbs with a strand. The fixed rats were submerged in water bath to the depth of ensiform process with their hind legs dipped first. Sixteen hours after the submergence, the rats were brought out from the bath and their stomachs were taken out. After light fixation with a 1% formalin aqueous solution, the stomach of each animal was cut open along their greater curvature and gastric mucosa was observed through a dissecting microscope. The ulcer was evaluated on an ulcer index calculated from the following equation: […]
wherein a is the number of big ulcers more than 3 mm in diameter and b is the number of small ulcers up to 3 mm in diameter.
A test compound was orally administered as a suspension in a 1% gum arabic aqueous solution, 10 minutes before exposure to stress.

[2] = test system: pylorus ligature ulcer formation; test: Protective action on pylorus ligature ulcer formation; type: in vivo, Sprague-Dawley strain male rats; details: in the duodenum, rats; for Percent Death Rate / Percent Perforating Ulcers: 16 hours after pylorus ligature
Procedure: Protective Action on pylorus ligature ulcer formation
The pylorus of Sprague-Dawley strain male rats weighing 150-200 g that had abstained from food, but not water for 48 hours was ligatured under ether anethsia. Each rat was allowed to stand individually in a cage for 16 hours without food and water. At the end of this term, the rats were sacrificed by an overdose of diethyl ether. The stomach was taken out of each animal and the gastric mucosa was observed by the use of a dissecting microscope.
Ulcers observed in the gastric mucosa were evaluated on a scale of from 0 to 5 defined as follows.
0: No lesion was observed.
1: Hemorrhage and/or erosion were observed.
2: One to five small ulcers less than 3 mm in diameter were observed.
3: Six or more small ulcers and/or a large ulcer more than 3 mm in diameter were observed.
4: Two or more large ulcers were observed.
5: At least one perforating ulcer was observed.
A test compound was administered as an aqueous solution in an equivalent molar of hydrochloric acid in the duodenum immediately after the pylorus ligature.

Acute toxicity in mice = details: mouse, in vivo
Procedure: Acute toxicity of 1-(3'-dimethylaminopropoxy)-2,4-bis(2"-methylbenzamido)-benzene, 1-(3'-dimethylaminopropoxy)-2,4-bis(3"-methylbenzamido)-benzene, 1-[N-(3-dimethylaminopropyl)-carbamoyl]-2,4-bis(2"-methylbenzamido)-benzene and 1-[N-(3'-dimethylaminopropyl)-carbamoyl]-2,4-bis(3"-methylbenzamido)-benzene were observed by the use of ddY strain male mice (5 weeks old) which were administered orally or intravenously with one of the compounds.
In the case of intravenous administration, the hydrochloride of test compound was dissolved in a physiological saline solution and administered by injecting into a vein of the tail. LD50 was determined by the "Up and Down" method.
When the administration was effected orally, the test compound was suspended in a 1% gum arabic aqueous solution and the suspension was administered orally by gavage. LD50 was determined by the Litchfield and Wilcoxon method or Miller and Tainter method based on death rate of each group of […] 10 days after the administration of the compound.

[3] = iv, hydrochloride in physiological saline, Up and Down Method
[4] = oral, 1% gum arabic suspension, 10 days, Litchfield and Wilcoxon Method

SMILES	Number of Ulcers/Stomach, 3 mm or larger ([1]; 100 mg/kg)	Number of Ulcers/Stomach, up to 3 mm ([1]; 100 mg/kg)	Ulcer Index (mean value ± standard deviation) ([1]; 100 mg/kg)	inhibition in vivo at 100 mg/kg ([1]; 100 mg/kg) [%]	also measured
Cc1cccc(C(=O)Nc2ccc(OCCCCN(C)C)c(NC(=O)c3cccc(C)c3)c2)c1 [1-(4'-dimethylaminobutoxy)-2,4-bis(3"-methylbenzamido)-benzene]	0.5	8	1.2 ± 1.6	82	
CCN(CC)CCCNC(=O)c1ccc(NC(=O)c2ccccc2OC)cc1NC(=O)c1ccccc1OC [1-[N-(3'-diethylaminopropyl)-carbamoyl]-2,4-bis(2"-methoxybenzamido)-benzene]	0	11	1.3 ± 0.5	80	
COc1ccccc1C(=O)Nc1ccc(OCCCN(C)C)c(NC(=O)c2ccccc2OC)c1 [1-(3'-dimethylaminopropoxy)-2,4-bis(2"-methoxybenzamido)-benzene trihydrochloride]	0.5	13	1.8 ± 2.4	71	
CCN(CC)CCNC(=O)c1cc(NC(=O)c2ccccc2OC)cc(NC(=O)c2ccccc2OC)c1 [1-[N-(2'-diethylaminoethyl)-carbamoyl]-3,5-bis(2"-methoxybenzamido)-benzene hydrochloride]	3.0	13	4.3 ± 2.2	33	
CCN(CC)CCNC(=O)c1ccc(NC(=O)c2ccccc2OC)cc1NC(=O)c1ccccc1OC [1-[N-(2'-diethylaminoethyl)-carbamoyl]-2,4-bis(2"-methoxybenzamido)-benzene hydrochloride]	1.1	12	3.8 ± 2.3	40	
Cc1cccc(C(=O)Nc2ccc(C(=O)NCCCN(C)C)c(NC(=O)c3cccc(C)c3)c2)c1 [1-[N-(3'-dimethylaminopropyl)-carbamoyl]-2,4-bis(3"-methylbenzamido)-benzene]		17			Percent Death Rate ([2]; 200 mg/kg): 0%; Percent Perforating Ulcers ([2]; 200 mg/kg): 0%; LD50 (Acute toxicity in mice; [3]): 88 mg/kg; LD50 (Acute toxicity in mice; oral, 1% gum arabic suspension, 10 days, Miller and Tainter Method): 5100 mg/kg
CCN(CC)CCNC(=O)c1ccc(NC(=O)c2ccccc2C)cc1NC(=O)c1ccccc1C [1-[N-(2'-diethylaminoethyl)-carbamoyl]-2,4-bis(2"-methylbenzamido)-benzene]	1.2	29	4.2 ± 0.4	38	
Cc1cccc(C(=O)Nc2ccc(OCCCN(C)C)c(NC(=O)c3cccc(C)c3)c2)c1 [1-(3'-dimethylaminopropoxy)-2,4-bis(3"-methylbenzamido)-benzene]		11			Percent Death Rate ([2]; 50 mg/kg): 33%; Percent Perforating Ulcers ([2]; 50 mg/kg): 50%; Percent Death Rate ([2]; 100 mg/kg): 0%; Percent Perforating Ulcers ([2]; 100 mg/kg): 0%; Percent Death Rate ([2]; 200 mg/kg): 0%; Percent Perforating Ulcers ([2]; 200 mg/kg): 0%; Percent Inhibition ([2]; 200 mg/kg, 16 hours, ulcer index vs control): 75%; Number of Ulcers/Stomach, up to 3 mm ([1]; 30 mg/kg): 21; Number of Ulcers/Stomach, up to 3 mm ([1]; 45 mg/kg): 9; Number of Ulcers/Stomach, up to 3 mm ([1]; 67 mg/kg): 7; LD50 (Acute toxicity in mice; [3]): 38 mg/kg; LD50 (Acute toxicity in mice; [4]): 4700 mg/kg
Cc1ccccc1C(=O)Nc1ccc(OCCCN(C)C)c(NC(=O)c2ccccc2C)c1 [1-(3'-dimethylaminopropoxy)-2,4-bis(2"-methylbenzamido)-benzene]		4			Percent Death Rate ([2]; 50 mg/kg): 20%; Percent Perforating Ulcers ([2]; 50 mg/kg): 20%; Percent Death Rate ([2]; 100 mg/kg): 0%; Percent Perforating Ulcers ([2]; 100 mg/kg): 0%; Percent Death Rate ([2]; 200 mg/kg): 0%; Percent Perforating Ulcers ([2]; 200 mg/kg): 0%; Number of Ulcers/Stomach, up to 3 mm ([1]; 30 mg/kg): 23; Number of Ulcers/Stomach, up to 3 mm ([1]; 45 mg/kg): 17; Number of Ulcers/Stomach, up to 3 mm ([1]; 67 mg/kg): 9; LD50 (Acute toxicity in mice; [3]): 42 mg/kg; LD50 (Acute toxicity in mice; [4]): 2520 mg/kg
Cc1ccccc1C(=O)Nc1ccc(C(=O)NCCCN(C)C)c(NC(=O)c2ccccc2C)c1 [1-[N-(3'-dimethylaminopropyl)-carbamoyl]-2,4-bis(2"-methylbenzamido)-benzene]		23			Percent Death Rate ([2]; 200 mg/kg): 0%; Percent Perforating Ulcers ([2]; 200 mg/kg): 0%; LD50 (Acute toxicity in mice; [3]): 111 mg/kg
CCN(CC)CCCOc1ccc(NC(=O)c2ccccc2OC)cc1NC(=O)c1ccccc1OC [1-(3'-diethylaminopropoxy)-2,4-bis(2"-methoxybenzamido)-benzene]	0.8	8	1.5 ± 2.4	76	
CCN(CC)CCCOc1ccc(NC(=O)c2ccccc2C)cc1NC(=O)c1ccccc1C [1-(3'-diethylaminopropoxy)-2,4-bis(2"-methylbenzamido)-benzene]	0	6	0.5 ± 1.0	92	
CCN(CC)CCCCOc1ccc(NC(=O)c2ccccc2OC)cc1NC(=O)c1ccccc1OC [1-(4'-diethylaminobutoxy)-2,4-bis(2"methoxybenzamido)-benzene]	0.8	11	1.8 ± 1.5	71	
Cc1ccc(C(=O)Nc2ccc(C(=O)NCCCN(C)C)c(NC(=O)c3ccc(C)cc3)c2)cc1 [1-[N-(3'-dimethylaminopropyl)-carbamoyl]-2,4-bis(4"-methylbenzamido)-benzene]	1.0	19	3.0 ± 1.4	60	
CCN(CC)CCCNC(=O)c1ccc(NC(=O)c2cccc(C)c2)cc1NC(=O)c1cccc(C)c1 [1-[N(3'-diethylaminopropyl)-carbamoyl]-2,4-bis(3"-methylbenzamido)-benzene]	0	12	1.0 ± 0.6	85	
CCN(CC)CCNC(=O)c1ccc(NC(=O)c2cccc(C)c2)cc1NC(=O)c1cccc(C)c1 [1-[N-(2'-diethylaminoethyl)-carbamoyl]-2,4-bis(3"-methylbenzamido)-benzene]	1.3	27	4.0 ± 2.6	46	
CCN(CC)CCNC(=O)c1ccc(NC(=O)c2ccc(C)cc2)cc1NC(=O)c1ccc(C)cc1 [1-[N-(2'-diethylaminoethyl)-carbamoyl]-2,4-bis(4"-methylbenzamido)-benzene]	1.4	26	4.0 ± 1.4	40	
Cc1ccccc1C(=O)Nc1ccc(OCCCCN(C)C)c(NC(=O)c2ccccc2C)c1 [1-(4'-dimethylaminobutoxy)-2,4-bis(2"-methylbenzamido)-benzene]	0.2	6	1.0 ± 0.6	85	
CCN(CC)CCCOc1ccc(NC(=O)c2ccc(C)cc2)cc1NC(=O)c1ccc(C)cc1 [1-(3'-diethylaminopropoxy)-2,4-bis(4"-methylbenzamido)-benzene]	1.3	17	3.0 ± 0.8	52	
CCN(CC)CCCOc1ccc(NC(=O)c2cccc(C)c2)cc1NC(=O)c1cccc(C)c1 [1-(3'-diethylaminopropoxy)-2,4-bis(3"-methylbenzamido)-benzene]	0.3	6	0.8 ± 1.0	87	
